Measurements published in ChEMBL document CHEMBL2073762, “Carrier-mediated mechanism for the biliary excretion of the quinolone antibiotic grepafloxacin and its glucuronide in rats” (J Pharmacol Exp Ther, 1998).

Assays:
[1] = molecular target: T1, ATP-binding cassette sub-family C member 2 (Rattus norvegicus, UniProt Q63120); assay: TP_TRANSPORTER: inhibition of DNP-SG uptake in bile canalicular membrane vesicles from SD rat; format: functional, cell membranes, Sprague-Dawley, Bile canalicular membrane vesicle
[2] = molecular target: T1, ATP-binding cassette sub-family C member 2; assay: TP_TRANSPORTER: inhibition of DNP-SG uptakee (DNP-SG: 1 uM, OFLX: 10000 uM) in bile canalicular membrane vesicles from SD rat; format: functional, cell membranes, Sprague-Dawley, Bile canalicular membrane vesicle
[3] = molecular target: T1, ATP-binding cassette sub-family C member 2; assay: TP_TRANSPORTER: uptake in bile canalicular membrane vesicles from EHBR rat; format: functional, cell membranes, Bile canalicular membrane vesicle
[4] = molecular target: T1, ATP-binding cassette sub-family C member 2; assay: TP_TRANSPORTER: uptake in bile canalicular membrane vesicles from SD rat; format: functional, cell membranes, Sprague-Dawley, Bile canalicular membrane vesicle
[5] = molecular target: T1, ATP-binding cassette sub-family C member 2; assay: TP_TRANSPORTER: inhibition of DNP-SG uptakee (DNP-SG: 1 uM, SPFX: 3000 uM) in bile canalicular membrane vesicles from SD rat; format: functional, cell membranes, Sprague-Dawley, Bile canalicular membrane vesicle; design: scale not given: the % may be the effect or the level left
[6] = molecular target: ATP-binding cassette sub-family C member 2 (ABCC2/Mrp2) (Rattus norvegicus, UniProt Q63120); assay: TP_TRANSPORTER: inhibition of DNP-SG uptakee (DNP-SG: 1 uM, SPFX: 3000 uM) in bile canalicular membrane vesicles from EHBR rat; format: functional, cell membranes, Bile canalicular membrane vesicle; design: scale not given: the % may be the effect or the level left; conditions: probe DNP-SG (1 uM), read-out: Activity
[7] = molecular target: T1, ATP-binding cassette sub-family C member 2; assay: TP_TRANSPORTER: inhibition of DNP-SG uptake (DNP-SG: 1 uM, LFLX: 10000uM) in bile canalicular membrane vesicles from SD rat; format: functional, cell membranes, Sprague-Dawley, Bile canalicular membrane vesicle
[8] = molecular target: T1, ATP-binding cassette sub-family C member 2; assay: TP_TRANSPORTER: inhibition of DNP-SG uptake (DNP-SG: 1 uM, LFLX: 10000uM) in bile canalicular membrane vesicles from EHBR rat; format: functional, cell membranes, Bile canalicular membrane vesicle
[9] = substrate: Cc1c(F)c(N2CCNC(C)C2)cc2c1c(=O)c(C(=O)O[C@@H]1O[C@H](C(=O)O)[C@@H](O)[C@H](O)[C@H]1O)cn2C1CC1; assay: TP_TRANSPORTER: uptake, high affinity component in bile canalicular membrane vesicles from SD rat; format: functional, cell membranes, Sprague-Dawley, Bile canalicular membrane vesicle

Cc1c(F)c(N2CCNC(C)C2)cc2c1c(=O)c(C(=O)O[C@@H]1O[C@H](C(=O)O)[C@@H](O)[C@H](O)[C@H]1O)cn2C1CC1 (stereo not given in full) [GREPAFLOXACIN GLUCURONIDE]
Ki [1]: 9.2 µM

CC1COc2c(N3CCN(C)CC3)c(F)cc3c(=O)c(C(=O)O)cn1c23 (stereo not given) [OFLOXACIN]
Activity [2]: inhibitor [(at a rough estimate) 50 % of control]

Cc1c(F)c(N2CCNC(C)C2)cc2c1c(=O)c(C(=O)O)cn2C1CC1 (stereo not given) [GREPAFLOXACIN]
Ki [1]: 1890 µM | Activity [3]: substrate [+] | Activity [4]: substrate [+]

C[C@@H]1CN(c2c(F)c(N)c3c(=O)c(C(=O)O)cn(C4CC4)c3c2F)C[C@H](C)N1 [SPARFLOXACIN]
Activity [5]: 60% | activity at 3000 µM [6]: 60%

CCn1cc(C(=O)O)c(=O)c2cc(F)c(N3CCNC(C)C3)c(F)c21 (stereo not given) [LOMEFLOXACIN]
Activity [7]: inhibitor [(at a rough estimate) 50 % of control] | Activity [8]: inhibitor [(at a rough estimate) 50 % of control]

B1: ATP-binding cassette sub-family C member 2 (Rattus norvegicus) (protein)
chain: MDKFCNSTFWDLSLLESPEADLPLCFEQTVLVWIPLGFLWLLAPWQLYSVYRSRTKRSSITKFYLAKQVFVVFLLILAAIDLSLALTEDTGQATVPPVRYTNPILYLCTWLLVLAVQHSRQWCVRKNSWFLSLFWILSVLCGVFQFQTLIRALLKDSKSNMAYSYLFFVSYGFQIVLLILTAFSGPSDSTQTPSVTASFLSSITFSWYDRTVLKGYKHPLTLEDVWDIDEGFKTRSVTSKFEAAMTKDLQKARQAFQRRLQKSQRKPEATLHGLNKKQSQSQDVLVLEEAKKKSEKTTKDYPKSWLIKSLFKTFHVVILKSFILKLIHDLLVFLNPQLLKLLIGFVKSSNSYVWFGYICAILMFAVTLIQSFCLQSYFQHCFVLGMCVRTTVMSSIYKKALTLSNLARKQYTIGETVNLMSVDSQKLMDATNYMQLVWSSVIQITLSIFFLWRELGPSILAGVGVMVLLIPVNGVLATKIRNIQVQNMKNKDKRLKIMNEILSGIKILKYFAWEPSFQEQVQGIRKKELKNLLRFGQLQSLLIFILQITPILVSVVTFSVYVLVDSANVLNAEKAFTSITLFNILRFPLSMLPMVTSSILQASVSVDRLERYLGGDDLDTSAIRRVSNFDKAVKFSEASFTWDPDLEATIQDVNLDIKPGQLVAVVGTVGSGKSSLVSAMLGEMENVHGHITIQGSTAYVPQQSWIQNGTIKDNILFGSEYNEKKYQQVLKACALLPDLEILPGGDMAEIGEKGINLSGGQKQRVSLARAAYQDADIYILDDPLSAVDAHVGKHIFNKVVGPNGLLAGKTRIFVTHGIHFLPQVDEIVVLGKGTILEKGSYRDLLDKKGVFARNWKTFMKHSGPEGEATVNNDSEAEDDDDGLIPTMEEIPEDAASLAMRRENSLRRTLSRSSRSSSRRGKSLKNSLKIKNVNVLKEKEKEVEGQKLIKKEFVETGKVKFSIYLKYLQAVGWWSILFIILFYGLNNVAFIGSNLWLSAWTSDSDNLNGTNNSSSHRDMRIGVFGALGLAQGICLLISTLWSIYACRNASKALHGQLLTNILRAPMRFFDTTPTGRIVNRFSGDISTVDDLLPQTLRSWMMCFFGIAGTLVMICMATPVFAIIIIPLSILYISVQVFYVATSRQLRRLDSVTKSPIYSHFSETVTGLPIIRAFEHQQRFLAWNEKQIDINQKCVFSWITSNRWLAIRLELVGNLVVFCSALLLVIYRKTLTGDVVGFVLSNALNITQTLNWLVRMTSEAETNIVAVERISEYINVENEAPWVTDKRPPADWPRHGEIQFNNYQVRYRPELDLVLKGITCNIKSGEKVGVVGRTGAGKSSLTNCLFRILESAGGQIIIDGIDVASIGLHDLRERLTIIPQDPILFSGSLRMNLDPFNKYSDEEVWRALELAHLRSFVSGLQLGLLSEVTEGGDNLSIGQRQLLCLGRAVLRKSKILVLDEATAAVDLETDSLIQTTIRKEFSQCTVITIAHRLHTIMDSDKIMVLDNGKIVEYGSPEELLSNRGSFYLMAKEAGIENVNHTEL
Km [9]: 7.2 µM
